By Kd is commonly meant the free concentration of one partner at which half of the binding sites on the other are occupied at equilibrium, for simple one-to-one binding.

One test addresses T1, HsRAD51 (Homo sapiens, UniProt Q06609).
T1 sequence (Q06609 1-339): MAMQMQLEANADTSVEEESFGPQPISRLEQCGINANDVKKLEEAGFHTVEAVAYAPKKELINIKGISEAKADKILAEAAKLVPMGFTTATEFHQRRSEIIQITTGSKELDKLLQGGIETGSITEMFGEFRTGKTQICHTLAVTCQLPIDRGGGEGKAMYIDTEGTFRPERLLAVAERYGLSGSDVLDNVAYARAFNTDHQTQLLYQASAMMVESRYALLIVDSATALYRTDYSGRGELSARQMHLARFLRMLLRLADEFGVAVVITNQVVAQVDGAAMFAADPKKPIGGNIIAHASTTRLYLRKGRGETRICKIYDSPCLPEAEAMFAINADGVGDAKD
The test can be described thus: Surface plasmon resonance (SPR) binding to immobilized RAD51. The note with it: 25 °C, equilibrium analysis, ± SD, read-out: KD, equilibrium dissociation constant of direct binding to hRAD51. As for the experimental part: The binding of RAD51i to RAD51 was examined using a ProteOn XPR36 SPR Protein Interaction Array System (Bio-Rad, Hercules, CA, USA) at 25 °C. ProteOn GLH sensor chips were preconditioned with two 10 s pulses of 50 mM NaOH, 100 mM HCl, and 0.5% SDS followed by the system equilibration with the running buffer (20 mM sodium phosphate, 150 mM NaCl, and 0.005% Tween 20, pH 7.4). The surface of a GLH sensorchip was subsequently activated with a 1:100 dilution of a 1:1 mixture of 0.2 M EDC and 0.05 M Sulfo-NHS. Purified HsRAD51 was diluted to 500 µg/mL in 10 mM sodium acetate, pH 5.5, and injected immediately after chip activation across the ligand flow channels at 30 µL/min for 5 min. Unreacted protein was washed out, and the excess of unreacted ester groups on the sensor surface was capped by an injection of 1 M ethanolamine-HCl, pH 8.0, at 5 µL/min for 5 min. A reference surface to correct for nonspecific binding was similarly created by immobilizing an IgG b12 anti-HIV-1 gp120 antibody (IgG b12 anti-HIV-1 gp120; was obtained through the NIH AIDS Reagent Program, Division of AIDS, NIAID, NIH: Anti-HIV-1 gp120 Monoclonal (IgG1 b12) from Drs. Dennis Burton and Carlos Barbas). Serial dilutions of the compounds were prepared in the running buffer supplemented with 8% DMSO and injected at a flow rate of 100 μL/min for a 1 min association phase, followed by a 5 min dissociation phase using the “one-shot kinetics” functionality of the ProteOn instrument. Data were analyzed with ProteOn Manager Software version 3.0 (Bio-Rad; Hercules, CA, USA). The responses from the reference flow cell were subtracted to account for the non-specific binding and injection artifacts. Experiments were repeated at least three times. The equilibrium dissociation constants (KD) for the interactions were calculated in ProteOn Manager Version 3.1.0.6 (Bio-Rad; Hercules, CA, USA) using the equilibrium analysis function.

The next test concerns MCF 10A cells. The test can be described thus: EdU cell proliferation assay, MCF 10A. The format is cell-based, human. The note with it: 24 h. The method, then:
Exponentially growing MDA-MB-231 and MCF 10A cells were seeded into 6-well plates at a density of 1.5 × 10^5 cells/well in the presence of indicated concentrations of B02-iso or 0.1% DMSO (for control cells). After 24 h of incubation, cells were labeled with 10 µM Edu (Invitrogen; Waltham, […], USA) for 1 h or left unlabeled in the control. Cells were harvested and centrifuged at 500× g, 4 °C for 5 min, and cell pellets were washed with PBS supplemented with 1% BSA, spun down, and fixed with 4% methanol-free formaldehyde (Pierce) in PBS for 15 min. Cells were washed with PBS containing 1% BSA, centrifuged 500× g for 5 min. Cell pellets were resuspended in PBS containing 0.1% Triton X-100 and incubated for 15 min for permeabilization. Cells were spun down, resuspended in freshly prepared Edu click labeling solution (1 mM CuSO4, 1.25 µM Alexa Fluor 488 Azide (Invitrogen; Waltham, […], USA), 50 mM ascorbic acid in PBS) and incubated for 30 min in the dark. Cells were washed twice with PBS containing 0.1% Triton X-100, resuspended in the same buffer, and analyzed for Edu incorporation by flow cytometry using the Guava easyCyte system (Millipore; Burlington, VT, USA) with the InCyte software (Millipore; Burlington, VT, USA).

Turning to `O=c1nc(/C=C/c2cccnc2)n(Cc2ccccc2)c2ccccc12` [B02-iso], at HsRAD51, the Kd was found to be 14.6 ± 6.2 µM. In addition, the “Fraction of DNA-replicating cells (EdU)” value is “dropped approximately two-fold” in the test on MCF 10A cells (4 µM) and “abolished almost entirely” in the test with MCF 10A cells (8 µM).

The record behind these values is article PMC8235719, “New RAD51 Inhibitors to Target Homologous Recombination in Human Cells” (Genes, 2021).
